These results are taken from US7572773B2, “Single dose fast dissolving azithromycin” (Pliva Hrvatska D.O.O., priority 2003, dated 2009).

Each structure is given as a SMILES string.

A short description of one data set: clinical. Particulars: human, in vivo, 500 mg.
The nature of data set [1]: Comparative dissolution profiles of azithromycin polymorph Ik vs. dihydrate, USP Method 2. In kind it is physicochemical. To be noted: for percent dissolved: pH 6 (37° C.), USP Method 2. On the procedure:
In order to compare the behavior in vitro of the fast dissolving azithromycin polymorph (Formula Ik) with the commercial azithromycin dihydrate product, dissolution profiles have been determined at pH 6.0 at 37° C. The comparative dissolution profiles were determined by USP Method 2, PharmaTest Dissolution Tester, PTW SII; the content of dissolved azithromycin was measured by HPLC.

Data set [2] in a line: Analysis of adverse events observed during human PK study. The class given is in vivo.
A short description of data set [3]: In vivo rat pharmacokinetic study, plasma and whole blood concentration time curves after p.o. administration. Particulars: rats, 50 mg/kg suspension; for ΔIa/dihydrate, Cmax / ΔIa/dihydrate, AUC(0-12): Ia relative to dihydrate; for ΔIa/dihydrate, AUC(0-12): monohydrate, 50 mg/kg.
Excerpt: 32 animals (Wistar Han rats, fasted) were studied using a cross-over experimental design experiment. A non-compartmental analysis was used to determine the concentrations of the respective materials in whole blood and plasma as a function of time.
Data set [4] in a line: Human pharmacokinetic study, plasma concentration after GI site-specific administration of aqueous suspension. Particulars: 500 mg aqueous suspension; for ΔIa/dihydrate, AUC / ΔIa/dihydrate, Cmax: Ia relative to dihydrate.
Description: (§1) The test was an open, mono-centric, fasted human study. 6 human subjects were studied using a full cross-over experimental design experiment. […] This crossover experiment was repeated a total of three times by intubations of the test subjects: the first involved GI site-specific administration to the stomach, the second involved GI site-specific administration to the duodenum, and the third involved GI site-specific administration to the jejunum.
(§2) The kinetics parameters were determined model-independently and the parameters were determined directly from the measured concentrations.
A short description of data set [5]: Comparative dissolution profiles of azithromycin monohydrate Ia vs. dihydrate, USP Method 2. In kind it is physicochemical. To be noted: pH 1.2, 3.0, 6.0 and 6.8, 37° C., 900 ml buffer, 100 rpm, FIGS. 1-4. On the procedure:
In order to compare the behavior in vitro of the fast dissolving azithromycin monohydrate (Formula Ia) with the commercial azithromycin dihydrate product, dissolution profiles have been determined at pH 1.2, pH 3.0, pH 6.0, and pH 6.8, at 37° C. The comparative dissolution profiles were determined in 900 ml buffer solution, at 100 rpm, by USP Method 2, PharmaTest Dissolution Tester, PTW SII; the content of dissolved azithromycin was measured by HPLC. The data thus obtained are plotted in FIGS. 1-4, respectively.

[6] abbreviates: site-specific administration to duodenum.
Setting [7] is: site-specific administration to jejunum.
[8] abbreviates: site-specific administration to stomach.

Description for clinical: as §1, §2

Consider `CC[C@H]1OC(=O)[C@H](C)[C@@H](O[C@H]2C[C@@](C)(OC)[C@@H](O)[C@H](C)O2)[C@H](C)[C@@H](O[C@@H]2O[C@H](C)C[C@H](N(C)C)[C@H]2O)[C@](C)(O)C[C@@H](C)CN(C)[C@H](C)[C@@H](O)[C@]1(C)O` [Azithromycin Dihydrate, 9-deoxo-9a-aza-9a-methyl-9a-homoerythromycin A dihydrate], for which, in “clinical”, the Cmax is 94 ng/mL. For the same compound, the percent dissolved in data set [1] (5 minutes, listed as Commercial 9-deoxo-9a-aza-9a-methyl-9a-homoerythromycin A Dihydrate, dihydrate) was found to be 14.5%; in data set [1] (10 minutes, listed as Commercial 9-deoxo-9a-aza-9a-methyl-9a-homoerythromycin A Dihydrate, dihydrate) it was 27.3%; in data set [1] (20 minutes, listed as Commercial 9-deoxo-9a-aza-9a-methyl-9a-homoerythromycin A Dihydrate, dihydrate), 44.2%; in data set [1] (45 minutes, listed as Commercial 9-deoxo-9a-aza-9a-methyl-9a-homoerythromycin A Dihydrate, dihydrate), 69.1%. In data set [2] (human, in vivo), the “adverse events with a possible causal relationship” value is 3 events.
As to `CC[C@H]1OC(=O)[C@H](C)[C@@H](O[C@H]2C[C@@](C)(OC)[C@@H](O)[C@H](C)O2)[C@H](C)[C@@H](O[C@@H]2O[C@H](C)C[C@H](N(C)C)[C@H]2O)[C@](C)(O)C[C@@H](C)CN(C)[C@H](C)[C@@H](O)[C@]1(C)O` [Pseudopolymorph Ik, 9-deoxo-9a-aza-9a-methyl-9a-homoerythromycin A Pseudopolymorph Ik], the percent dissolved in data set [1] (5 minutes) was 99.8%; in data set [1] (10 minutes), 99.9%; in data set [1] (20 minutes), 97.1%; in data set [1] (45 minutes), 97.6%. For the same compound, in data set [1] (pH 6.0, 37° C.), the “dissolution profile compared to commercially available azithromycin dihydrate” value is given as “dissolves faster”.
Take `CC[C@H]1OC(=O)[C@H](C)[C@@H](O[C@H]2C[C@@](C)(OC)[C@@H](O)[C@H](C)O2)[C@H](C)[C@@H](O[C@@H]2O[C@H](C)C[C@H](N(C)C)[C@H]2O)[C@](C)(O)C[C@@H](C)CN(C)[C@H](C)[C@@H](O)[C@]1(C)O.O` [azithromycin monohydrate]: the “AUC(0-12)” value worked out at 5148 nghr/ml in data set [3] (plasma) and 21204 nghr/ml in data set [3] (whole blood). The Cmax in data set [3] (plasma) is 1006 ng/mL; in data set [3] (whole blood) it was 5061 ng/mL; in data set [4] (setting [6]) it was 129 ng/mL; in data set [4] (setting [7]), 99 ng/mL; in data set [4] (setting [8]) it was 143 ng/mL. The “ΔIa/dihydrate, Cmax” value in data set [3] (plasma) was “+37%”; in data set [3] (whole blood), “+97%”; in data set [4] (duodenum), “+10%”; in data set [4] (jejunum) it was “+60%”; in data set [4] (stomach), “+52%”. Moreover, the “ΔIa/dihydrate, AUC(0-12)” value in data set [3] (plasma, listed as azithromycin monohydrate Ia) is about 29%; in data set [3] (plasma) it was “+29%”; in data set [3] (whole blood, listed as azithromycin monohydrate Ia), “approximately 27%”; in data set [3] (whole blood) it was “+27%”. In addition, in data set [2] (human PK study, single dose administration of a comparable amount), the “incidence of adverse effects compared to azithromycin dihydrate product” value was “lower incidence of adverse effects”. For the same compound, the “ΔIa/dihydrate, AUC” value in data set [4] (duodenum) is given as −13%; in data set [4] (jejunum), “+98%”; in data set [4] (stomach), “+19%”. Moreover, the AUC was found to be 719 nghr/ml in data set [4] (setting [6]), 836 nghr/ml in data set [4] (setting [7]) and 813 nghr/ml in data set [4] (setting [8]). In data set [5], the “dissolution profile compared to commercially available azithromycin dihydrate” value is given as “dissolves faster”.
